Measurements reported in ChEMBL document CHEMBL1201862, “PubChem BioAssay data set” (2004).
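Cells were grown in 96-well plates and exposed to each compound for 48 hours at five concentrations; endpoints were interpolated linearly between bracketing concentrations, or set to the highest concentration if not reached. GI50 marks 50% less growth.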 The source made the active and inactive calls. No stated cut-off is given here; in the data, active = GI50 up to about 1.1 µM and inactive = higher.

What was measured:
Experiment in all cases: growth of human tumour cells (NCI), 48 h
[1] = tested on: Malme-3M
[2] = tested on: SK-OV-3
[3] = tested on: SK-MEL-28
[4] = tested on: LXFL 529
[5] = tested on: HCC 2998
[6] = tested on: DMS-114
[7] = tested on: U-251
[8] = tested on: COLO 205
[9] = tested on: NCI-H23
[10] = tested on: XF498
[11] = tested on: SK-MEL-5
[12] = tested on: SNB-75
[13] = tested on: UO-31
[14] = tested on: HOP-62
[15] = tested on: EKVX
[16] = tested on: HCT-116
[17] = tested on: M14
[18] = tested on: M19-MEL
[19] = tested on: HL-60
[20] = tested on: IGROV-1
[21] = tested on: NCI-H226
[22] = tested on: ACHN
[23] = tested on: HOP-18
[24] = tested on: OVCAR-5
[25] = tested on: HCT-15
[26] = tested on: RPMI-8226
[27] = tested on: UACC-257
[28] = tested on: KM-20L2
[29] = tested on: OVCAR-3
[30] = tested on: A549
[31] = tested on: HT-29
[32] = tested on: TK-10
[33] = tested on: MOLT-4
[34] = tested on: SN12C
[35] = tested on: OVCAR-8
[36] = tested on: CCRF-CEM
[37] = tested on: K562
[38] = tested on: SF-295
[39] = tested on: A498
[40] = tested on: UACC-62
[41] = tested on: DLD-1
[42] = tested on: KM12
[43] = tested on: 786-0
[44] = tested on: RXF 393
[45] = tested on: SNB-19
[46] = tested on: LOX IMVI
[47] = tested on: NCI-H522
[48] = tested on: SW-620
[49] = tested on: SF-539
[50] = tested on: NCI-H460
[51] = tested on: SK-MEL-2
[52] = tested on: DMS-273
[53] = tested on: OVCAR-4
[54] = tested on: SR
[55] = tested on: SF-268
[56] = tested on: HOP-92
[57] = tested on: CAKI-1

## Cc1cc(=O)n(-c2cc3cccccc-3n2)[nH]1
[1]
  GI50: 3.76 µM (inactive)
[2]
  GI50: 6.31 µM (inactive)
[3]
  GI50: 4.67 µM (inactive)
[4]
  GI50: 3.79 µM (inactive)
[5]
  GI50: 12.1 µM (inactive)
[6]
  GI50: 2.38 µM (inactive)
[7]
  GI50: 2.04 µM (inactive)
[8]
  GI50: 14.4 µM (inactive)
[9]
  GI50: 4.8 µM (inactive)
[10]
  GI50: 4.03 µM (inactive)
[11]
  GI50: 2.05 µM (inactive)
[12]
  GI50: 3.76 µM (inactive)
[13]
  GI50: 6.35 µM (inactive)
[14]
  GI50: 4.34 µM (inactive)
[15]
  GI50: 12.5 µM (inactive)
[16]
  GI50: 2.16 µM (inactive)
[17]
  GI50: 4.42 µM (inactive)
[18]
  GI50: 3.95 µM (inactive)
[19]
  GI50: 3.48 µM (inactive)
[20]
  GI50: 2.78 µM (inactive)
[21]
  GI50: 12.1 µM (inactive)
[22]
  GI50: 5.87 µM (inactive)
[23]
  GI50: 3.95 µM (inactive)
[24]
  GI50: 15.5 µM (inactive)
[25]
  GI50: 5.07 µM
[26]
  GI50: 8 µM (inactive)
[27]
  GI50: 5.15 µM (inactive)
[28]
  GI50: 38.4 µM (inactive)
[29]
  GI50: 3.05 µM (inactive)
[30]
  GI50: 12.4 µM (inactive)
[31]
  GI50: 13.5 µM (inactive)
[32]
  GI50: 7.31 µM (inactive)
[33]
  GI50: 4.3 µM (inactive)
[34]
  GI50: 5.74 µM (inactive)
[35]
  GI50: 5.53 µM (inactive)
[36]
  GI50: 4.13 µM (inactive)
[37]
  GI50: 2.74 µM (inactive)
[38]
  GI50: 16.7 µM (inactive)
[39]
  GI50: 16.8 µM (inactive)
[40]
  GI50: 2.84 µM (inactive)
[41]
  GI50: 5.61 µM (inactive)
[42]
  GI50: 5.38 µM (inactive)
[43]
  GI50: 4.58 µM (inactive)
[44]
  GI50: 2.36 µM (inactive)
[45]
  GI50: 43.6 µM (inactive)
[46]
  GI50: 9.64 µM (inactive)
[47]
  GI50: 2.68 µM (inactive)
[48]
  GI50: 3.73 µM (inactive)
[49]
  GI50: 5.47 µM (inactive)
[50]
  GI50: 3.4 µM (inactive)

## CC1=C(C)C(=O)c2c(cc3c4ccccc4ccn23)C1=O
[1]
  GI50: > 100 µM (inactive)
[2]
  GI50: > 100 µM (inactive)
[3]
  GI50: > 100 µM (inactive)
[6]
  GI50: > 100 µM (inactive)
[7]
  GI50: > 100 µM (inactive)
[8]
  GI50: > 100 µM (inactive)
[9]
  GI50: > 100 µM (inactive)
[10]
  GI50: 63.8 µM (inactive)
[11]
  GI50: > 100 µM (inactive)
[12]
  GI50: > 100 µM (inactive)
[13]
  GI50: > 100 µM (inactive)
[14]
  GI50: > 100 µM (inactive)
[15]
  GI50: > 100 µM (inactive)
[16]
  GI50: > 10 µM (inactive)
[17]
  GI50: > 100 µM (inactive)
[51]
  GI50: > 100 µM (inactive)
[18]
  GI50: > 100 µM (inactive)
[20]
  GI50: > 100 µM (inactive)
[21]
  GI50: > 100 µM (inactive)
[22]
  GI50: > 100 µM (inactive)
[23]
  GI50: > 100 µM (inactive)
[25]
  GI50: > 100 µM
[26]
  GI50: > 100 µM (inactive)
[27]
  GI50: > 100 µM (inactive)
[28]
  GI50: > 100 µM (inactive)
[29]
  GI50: > 100 µM (inactive)
[30]
  GI50: > 100 µM (inactive)
[31]
  GI50: > 100 µM (inactive)
[32]
  GI50: > 100 µM (inactive)
[33]
  GI50: > 100 µM (inactive)
[34]
  GI50: > 100 µM (inactive)
[35]
  GI50: > 100 µM (inactive)
[36]
  GI50: > 10 µM (inactive)
[37]
  GI50: > 100 µM (inactive)
[38]
  GI50: > 100 µM (inactive)
[40]
  GI50: > 100 µM (inactive)
[41]
  GI50: > 100 µM (inactive)
[42]
  GI50: > 100 µM (inactive)
[43]
  GI50: > 100 µM (inactive)
[44]
  GI50: > 100 µM (inactive)
[45]
  GI50: > 100 µM (inactive)
[52]
  GI50: > 100 µM (inactive)
[46]
  GI50: > 100 µM (inactive)
[47]
  GI50: > 100 µM (inactive)
[48]
  GI50: > 100 µM (inactive)
[49]
  GI50: > 100 µM (inactive)
[50]
  GI50: > 100 µM (inactive)

## COc1cccc2c1C(=O)c1c(O)c3c(c(O)c1C2=O)C[C@@](O)(C(=O)CO)CC3OC1CC(NCCOCC(OC(C)=O)OC(C)=O)C(O)C(C)O1 (stereo not given in full)
[1]
  GI50: < 0.01 µM (active)
[2]
  GI50: < 0.01 µM (active)
[53]
  GI50: < 0.01 µM (active)
[3]
  GI50: < 0.01 µM (active)
[4]
  GI50: < 0.01 µM (active)
[5]
  GI50: < 0.01 µM (active)
[6]
  GI50: < 0.01 µM (active)
[7]
  GI50: 0.00925 µM (active)
[9]
  GI50: < 0.01 µM (active)
[54]
  GI50: < 0.01 µM (active)
[55]
  GI50: < 0.01 µM (active)
[10]
  GI50: < 0.01 µM (active)
[11]
  GI50: < 0.01 µM (active)
[12]
  GI50: < 0.01 µM (active)
[13]
  GI50: < 0.01 µM (active)
[14]
  GI50: 0.00382 µM (active)
[15]
  GI50: < 0.01 µM (active)
[17]
  GI50: < 0.01 µM (active)
[51]
  GI50: < 0.01 µM (active)
[18]
  GI50: < 0.01 µM (active)
[19]
  GI50: < 0.01 µM (active)
[20]
  GI50: < 0.01 µM (active)
[21]
  GI50: < 0.01 µM (active)
[22]
  GI50: < 0.01 µM (active)
[23]
  GI50: < 0.01 µM (active)
[56]
  GI50: < 0.01 µM (active)
[24]
  GI50: < 0.01 µM (active)
[25]
  GI50: < 0.01 µM
[57]
  GI50: 0.01 µM (active)
[26]
  GI50: < 0.01 µM (active)
[27]
  GI50: < 0.01 µM (active)
[28]
  GI50: < 0.01 µM (active)
[29]
  GI50: < 0.01 µM (active)
[30]
  GI50: < 0.01 µM (active)
[31]
  GI50: < 0.01 µM (active)
[32]
  GI50: < 0.01 µM (active)
[33]
  GI50: < 0.01 µM (active)
[34]
  GI50: < 0.01 µM (active)
[35]
  GI50: < 0.01 µM (active)
[36]
  GI50: 0.00766 µM (active)
[37]
  GI50: < 0.01 µM (active)
[38]
  GI50: 0.00973 µM (active)
[39]
  GI50: < 0.01 µM (active)
[40]
  GI50: 0.00498 µM (active)
[41]
  GI50: 0.01 µM (active)
[42]
  GI50: < 0.01 µM (active)
[43]
  GI50: < 0.01 µM (active)
[44]
  GI50: < 0.01 µM (active)
[45]
  GI50: 0.00782 µM (active)
[46]
  GI50: 0.00598 µM (active)
[48]
  GI50: < 0.01 µM (active)
[49]
  GI50: < 0.01 µM (active)
[50]
  GI50: < 0.01 µM (active)
